Measured values taken from PMC12615753, “Glutathione as a taste modulator: molecular mechanisms of interaction with umami and sweet taste receptors” (Food Chemistry: Molecular Sciences, 2025).

Target: T1, hTAS1R1 R277A/rTAS1R3 (Homo sapiens, UniProt Q7RTX1, R277A)
T1 construct: UniProtKB number Q7RTX1–1); expressed in transfected cells; host or cells: HEK293T/17 (ATCC CRL-11268)
T1 sequence (Q7RTX1 21-841 R277A): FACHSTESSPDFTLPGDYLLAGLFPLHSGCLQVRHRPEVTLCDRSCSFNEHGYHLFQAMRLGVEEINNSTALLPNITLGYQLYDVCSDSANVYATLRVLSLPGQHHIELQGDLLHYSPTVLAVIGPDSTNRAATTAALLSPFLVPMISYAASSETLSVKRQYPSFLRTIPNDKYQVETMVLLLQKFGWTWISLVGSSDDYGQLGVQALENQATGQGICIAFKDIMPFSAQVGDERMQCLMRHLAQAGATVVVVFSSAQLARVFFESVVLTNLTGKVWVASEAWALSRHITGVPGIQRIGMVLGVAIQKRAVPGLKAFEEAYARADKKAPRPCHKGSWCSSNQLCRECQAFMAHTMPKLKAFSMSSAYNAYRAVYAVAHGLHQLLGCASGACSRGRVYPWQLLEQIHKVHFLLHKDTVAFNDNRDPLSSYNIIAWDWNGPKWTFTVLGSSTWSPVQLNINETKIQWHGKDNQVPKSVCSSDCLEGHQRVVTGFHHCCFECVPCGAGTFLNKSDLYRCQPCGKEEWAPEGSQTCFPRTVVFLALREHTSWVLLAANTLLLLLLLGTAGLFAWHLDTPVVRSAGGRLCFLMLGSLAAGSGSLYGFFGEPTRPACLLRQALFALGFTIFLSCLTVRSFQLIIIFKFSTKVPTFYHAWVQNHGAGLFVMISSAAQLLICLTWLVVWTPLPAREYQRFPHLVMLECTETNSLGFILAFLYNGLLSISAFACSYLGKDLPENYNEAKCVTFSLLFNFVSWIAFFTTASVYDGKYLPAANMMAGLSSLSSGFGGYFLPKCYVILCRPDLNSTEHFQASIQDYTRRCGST
T1 sequence (Q923K1 21-858 partner): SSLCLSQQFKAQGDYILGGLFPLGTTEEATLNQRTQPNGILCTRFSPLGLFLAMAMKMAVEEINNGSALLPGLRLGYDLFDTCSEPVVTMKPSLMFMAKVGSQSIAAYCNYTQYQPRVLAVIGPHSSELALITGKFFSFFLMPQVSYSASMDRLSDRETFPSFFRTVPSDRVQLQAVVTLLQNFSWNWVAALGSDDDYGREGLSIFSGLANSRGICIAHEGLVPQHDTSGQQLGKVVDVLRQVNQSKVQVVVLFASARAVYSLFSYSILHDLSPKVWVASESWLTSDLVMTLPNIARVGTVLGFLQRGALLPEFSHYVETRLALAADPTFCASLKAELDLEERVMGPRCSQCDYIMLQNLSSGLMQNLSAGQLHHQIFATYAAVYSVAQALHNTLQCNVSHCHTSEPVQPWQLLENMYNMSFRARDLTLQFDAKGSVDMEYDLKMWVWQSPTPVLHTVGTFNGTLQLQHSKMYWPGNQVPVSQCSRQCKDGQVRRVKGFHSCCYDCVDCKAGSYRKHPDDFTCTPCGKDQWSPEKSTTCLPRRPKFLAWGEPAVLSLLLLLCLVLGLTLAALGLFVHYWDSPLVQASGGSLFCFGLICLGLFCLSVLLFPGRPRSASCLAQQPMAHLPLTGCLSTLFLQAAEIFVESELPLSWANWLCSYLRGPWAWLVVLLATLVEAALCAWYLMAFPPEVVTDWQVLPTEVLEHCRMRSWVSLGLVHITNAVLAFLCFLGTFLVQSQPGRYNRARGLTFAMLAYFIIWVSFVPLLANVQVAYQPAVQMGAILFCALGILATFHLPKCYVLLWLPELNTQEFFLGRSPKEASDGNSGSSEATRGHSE
Assay: Calcium assay, hTAS1R1 mutant co-expressed with rTAS1R3
Type: cell-based, rat

## N[C@@H](CCC(=O)O)C(=O)O [L-Glu, L-glutamic acid, reference compound]
R277A
  response to the agonist alone, vs WT: increased the amplitude

## N[C@@H](CCC(=O)N[C@@H](CS)C(=O)NCC(=O)O)C(=O)O [GSH, γ-L-glutamyl-L-cysteinyl-glycine]
  EC50: 1840 ± 174 µM
R277A
  effect of the added compound (1 mM) on the response to L-Glu: did not affect
  response to the agonist alone, vs WT: significantly increased the initial amplitude
R277A, GSH
  Max ∆F/F0: 0.85 ± 0.02
  R1 = mutant EC50/WT EC50: 0.7
